Data from US20250281509A1, “SEQUENTIAL HORMONE THERAPY TO IMPROVE SURVIVAL AND ENHANCE RESPONSE TO IMMUNE THERAPY IN MEN WITH PROSTATE CANCER” (The Johns Hopkins University, priority 2021, published 2025).
Several values for one entry are separate records, joined by “and”; a condition that tells them apart may be missing. Identical values can stand only once. Like-named read-outs stand apart in the source and are kept apart here.

Key:
[1] = test system: metastatic castration-resistant prostate cancer; conditions: cited from earlier work
CRPC [2] = test: Post hoc analysis of PSA response to subsequent hormonal therapies post-BAT (pilot study); format: in vivo, human; conditions: for patients with a PSA decline on second line therapy: after return to castrate testosterone levels post-BAT; for Maximum PSA decline upon secondary HT initiation (%): per subject, secondary HT received post-study after return to castrate T-levels post-BAT; for PSA decline upon re-challenge: subjects who had previously progressed on the same agent
Protocol: As part of the aforementioned pilot study, a post hoc exploratory analysis on the effect of BAT on subsequent hormonal therapies was performed. […] All of the patients had received at least one anti-androgen prior to starting the study, Table 2. PSA response to secondary hormonal therapy after return to castrate T-levels post-BAT.

CRPC [3] = test: RESTORE Phase II study (NCT02090114); format: in vivo, human; conditions: re-challenge with the agent patients progressed on before BAT
Source text: The RESTORE study (NCT02090114) was an NIH sponsored Phase II study designed to assess the safety and efficacy of BAT in men (n=30 per cohort) with CRPC progressing on enzalutamide (Cohort A) or abiraterone (Cohort B), FIG. 6A. Shah et al., 2004. The primary endpoint of the first part of the study was to assess PSA response to BAT. Secondary endpoints included objective response, safety, and quality of life. The second part of the study was to determine in BAT could re-sensitize patients to repeat exposure to second line therapy that patients were progressing on prior to receiving BAT. Thus, patients progressing on enzalutamide were re-exposed to enzalutamide after BAT and similarly for abiraterone. Both arms of this study met the primary endpoint. PSA50 Response to BAT was 30% in patient's post-enzalutamide and 18% post-abiraterone, FIG. 6B. Shah et al., 2004. […] Overall duration of response to BAT and duration of response to re-exposure was longer in the post-enzalutamide vs. post-abiraterone cohort. The PSA50 response to re-exposure to enzalutamide was 71% vs. only 21% for patients re-exposed to abiraterone, FIG. 6B. Shah et al., 2004. A third cohort was later added (Cohort C) for men progressing on ADT alone. Overall, 90 men were treated on this study over a 4-year period (2014-2018).

LNCaP = test: Cell death, trypan blue exclusion assay; format: cell-based, human; conditions: ferrostatin-1 in combination with R1881
Protocol: Cells were stained with 0.4% trypan blue (Sigma) and incubated for 2-3 min at room temperature to allow dead cells to take up the blue stain. Cell viability was measured using an automated cell counter, Cellometer, (Nexcelom). Each experiment was repeated at least three times. Dead cells were calculated from subtracting the percentage of viable cells from 100. Mean percentage of dead cells was plotted on histograms.

ferritin = test: Ferritin level by western blot; format: cell-based, human; conditions: LNCaP cells, 10 μM with 10 nM R1881
Protocol: Cell lysates were prepared either in 1× denaturing lysis buffer (Cell Signaling #9803) or non-denaturing lysis buffer (50 mM HEPES pH 7.4, 150 mM NaCl, 5 mM EDTA, 10% glycerol, 1% Nonidet P-40, and supplemented with phosphatase and protease inhibitors). For denaturing gels, lysates were mixed with Laemmli buffer containing β-mercaptoethanol, boiled for 5 mins and stored at −80° C. until use. Native lysates were mixed with native loading buffer (BioRad), and semi-native lysates were mixed with Laemmli buffer without beta-mercaptoethanol and stored at −80° C. without boiling. Native gels were resolved as described previously, Robitaille et al., 2016; denaturing and semi-native gels were resolved on 4-15% precast polyacrylamide gels (BioRad) followed by transfer to PVDF membrane. Membranes were blocked in 5% nonfat milk in wash buffer (Tris-buffered saline+0.1% Tween-20). After blocking, immunoblotting was performed with primary antibodies overnight at 4° C., followed by incubation with HRP-conjugated secondary antibodies for 1 h at room temperature. Blots were analyzed using the chemiluminescence method. Blots were developed using ECL Western blot detection reagent (GE Healthcare) for highly expressed proteins and Super Signal West Femto (Thermo Fisher) reagent for low expression proteins. Each experiment was repeated at least two to three times.

CRPC [4] = test: Pilot study of BAT plus etoposide in men with CRPC; format: in vivo, human
Protocol: Based on the preclinical results and potential mechanisms for growth inhibition that include androgen-induced double strand breaks and stabilization of AR preventing relicensing, a pilot study was conducted to evaluate the efficacy and safety of pharmacologic doses of testosterone to produce high dose testosterone levels in conjunction with oral etoposide in chronically castrated men with rising PSA and CRPC, FIG. 4A. Patients who had been continuously castrate for more than one year with minimal metastatic disease burden (≤5 total bone metastases and ≤10 total sites of metastases) and/or rising PSA were eligible, FIG. 4B. To achieve rapid cycling between high dose and near castrate serum testosterone (i.e., BAT) patients received intramuscular injection of 400 mg testosterone cypionate every 28 days. For the first 3 cycles of therapy patients received BAT plus oral etoposide 100 mg po/day days 1-14 of a 28-day cycle. After 3 cycles PSA response and objective response were assessed. Those patients with a PSA that was declining from peak levels and no objective evidence of disease progression or worsening pain were continued on therapy. Given the toxicity associated with etoposide and the lack of clinical response in an earlier trial, Hussain et al., 1994, patients who responding after 3 cycles of testosterone plus etoposide were continued on testosterone alone based on protocol amendment.

[5] = test system: advanced prostatic carcinoma; conditions: cited from earlier work
LNCaP/A-xenografts = test: LNCaP xenografts in castrated mice with testosterone implants; format: in vivo
Source text: FIG. 3A and FIG. 3B show castrated NOG mice inoculated with LNCaP/A-cells were either exposed to BAT therapy (via an implanted testosterone filled capsule that was placed and removed at two-week intervals) or left in a permanently castrate state (diamond versus box). (FIG. 3A) Evaluation of indicated parameters in LNCaP/A-cells growing in castrate mice vs. castrate mice supplemented with subcutaneous testosterone-filled silastic implants; (FIG. 3B) Immunohistochemical staining for AR in harvested LNCaP/A-xenografts growing in castrate vs. castrate+T-pelleted mice. Blue arrows indicate mitotic figures;
A mechanism for growth inhibition by testosterone in CRPC cells has been recently explored. Beer et al., 2014; Litvinov et al., 2006; Vander Griend et al., 2007. These studies document that the increase in AR expression observed in these cells in the low testosterone environment creates a unique therapeutic vulnerability to selectively kill CRPCs. This observation is based on the fact that AR is involved in DNA relicensing and DNA replication AR must degraded each cell cycle for proper relicensing to occur. Overstabilization of the increased levels of AR observed in CRPC with high dose testosterone prevents complete degradation of AR via the proteasome during mitosis. Beer et al., 2014; Litvinov et al., 2006; Vander Griend et al., 2007. […] Beer et al., 2014. […] In xenografts treated with high dose testosterone, however, the Cell Death Index was approximately 3-fold higher. Beer et al., 2014. More strikingly, the percent of cells staining positive for AR in mitosis was approximately 10-fold higher in cells exposed to high dose testosterone vs. castrate only animals, FIG. 3b.

early CRPC = conditions: cited from earlier work
[6] = cited from earlier work
CRPC [7] = conditions: cited from earlier work
mCPRC = conditions: 258 patients previously treated with docetaxel and one or more hormonal therapies; cited from earlier work

Molecule: CC(=O)O[C@H]1CC[C@@]2(C)C(=CC[C@@H]3[C@@H]2CC[C@]2(C)C(c4cccnc4)=CC[C@@H]32)C1 [abiraterone, abiraterone acetate]
- PFS (median), clinical/radiographic ([1]; AR-V7-negative patients): not reached
- PSA response rate ([1]; AR-V7-negative patients): 68.0%
- PSA-PFS (median) ([1]; AR-V7-negative patients): not reached
- PFS (median), clinical/radiographic ([1]; AR-V7-positive patients): 2.3 months
- PSA response rate ([1]; AR-V7-positive patients): 0%
- PSA-PFS (median) ([1]; AR-V7-positive patients): 1.3 months
- patients with a PSA decline on second line therapy (CRPC [2]): 4/4
- Maximum PSA decline upon secondary HT initiation (%) (CRPC [2]): −94.2% and −92.7% and −88.1% and −63.8%
- patients with >50% PSA decline on second line therapy (CRPC [2]; post-BAT): Four of 4
- PSA50 response to re-exposure post-BAT (CRPC [3]): 21%

Molecule: CC(O)(CS(=O)(=O)c1ccc(F)cc1)C(=O)Nc1ccc(C#N)c(C(F)(F)F)c1 (centres unmarked) [bicalutamide]
- patients with a PSA decline on second line therapy (CRPC [2]): 1/1
- Maximum PSA decline upon secondary HT initiation (%) (CRPC [2]): −30.8%
- PSA decline upon re-challenge (CRPC [2]): 30.9%

Molecule: CCOC(=O)c1ccc(NC2CCCCC2)c(N)c1 [ferrostatin-1]
- SupraT induced cell death (LNCaP): abrogated cell death

Molecule: CCN(CCO)CCCC(C)Nc1ccnc2cc(Cl)ccc12 (centres unmarked) [hydroxychloroquine]
- degradation of ferritin by SupraT (ferritin): prevented the degradation of ferritin by SupraT

Molecule: CC1(C)NC(=O)N(c2ccc([N+](=O)[O-])c(C(F)(F)F)c2)C1=O [nilutamide]
- patients with a PSA decline on second line therapy (CRPC [2]): 1/1
- Maximum PSA decline upon secondary HT initiation (%) (CRPC [2]): −44.3%
- PSA decline upon re-challenge (CRPC [2]): 44.3%

Molecule: C[C@]12CC[C@H]3[C@@H](CCC4=CC(=O)CC[C@@]43C)[C@@H]1CC[C@@H]2OC(=O)CCC1CCCC1 [testosterone cypionate]
- patients with a decline in PSA from baseline value (CRPC [4]; 400 mg IM every 28 days, oral etoposide in first 3 cycles): Seven of fourteen
- patients developing new bone metastases (CRPC [4]; completing 3 months of therapy): None of the 14 patients
- median time to PSA progression (CRPC [4]; seven patients with PSA decline, range 95 to 454 days): 221 days
- complete response (CR) (CRPC [4]; ten evaluable subjects): 10%
- partial responses (PRs) (CRPC [4]; ten evaluable subjects): 40%
- progressive disease (PD), RECIST-evaluable soft tissue metastases (CRPC [4]; ten evaluable subjects): 20%
- stable disease (CRPC [4]; ten evaluable subjects, median follow up 91 days): 30%

Molecule: C[C@]12CC[C@H]3[C@@H](CCC4=CC(=O)CC[C@@]43C)[C@@H]1CC[C@@H]2O [testosterone]
- patients with subjective improvement ([5]; long-term castrate group, testosterone for at least one month): 4 of 5
- men with acid phosphatase decline ([5]; longer course of testosterone): 2/5
- Cell Death Index, increase vs castrate (LNCaP/A-xenografts; high dose testosterone vs castrate only): approximately 3 fold
- percent of cells staining positive for AR in mitosis, increase vs castrate (LNCaP/A-xenografts; high dose testosterone vs castrate only animals): approximately 10 fold
- xenograft growth (LNCaP/A-xenografts; testosterone implants, high dose serum T-levels vs castrate only): significant growth inhibition

Molecule: C[C@]12CC[C@H]3[C@@H](CCC4=CC(=O)CC[C@@]43C)[C@@H]1CC[C@@H]2O [transdermal testosterone, testosterone]
- patients with a decrease in PSA (early CRPC; 15 men, 2.5-7.5 mg/day): 20%
- largest decrease in PSA (early CRPC; in vivo): 43%
- toxicities (early CRPC; in vivo): no grade 3 or 4 toxicities were observed with the exception of one person who was taken off study at week 53 for grade 4 cardiac toxicity
- median concentration of testosterone ([6]; 2.5 mg/day transdermal): 305 ng/dL
- median concentration of testosterone ([6]; 5.0 mg/day transdermal): 308 ng/dL
- median concentration of testosterone ([6]; 7.5 mg/day transdermal): 297 ng/dL
- toxicities (CRPC [7]; 7.5 mg/day, 12 patients): no grade 3 or 4 toxicities and no pain flares
- objective responses (CRPC [7]; 7.5 mg/day): No objective responses
- patients with >50% PSA decline (CRPC [7]; of 12 patients): one
- patients with at least 20% PSA declines (CRPC [7]; of 12 patients): Four

Molecule: Pembrolizumab: anti-PD1/PDL1 antibody
- Objective response (mCPRC): < 5%
